Earlier results on two molecules are cited in patent publication US20230039551A1, “BUFFER- AND CHELATOR-FREE, STABLE OPHTHALMOLOGICAL COMPOSITIONS OF KETOROLAC AND PHENYLEPHRINE AND APPLICATIONS THEREOF” (Somerset Therapeutics, LLC, priority 2021, published 2023).

Counter-ions that a name gives are not always drawn.

Turning to `O=C(c1ccccc1)c1ccc2n1CCC2C(=O)O` (centres unmarked) [Ketorolac tromethamine, 2-amino-2-(hydroxymethyl)propane-1,3-diol; 5-benzoyl-2,3-dihydro-1H-pyrrolizine-1-carboxylic acid], the pKa value result is “about 3.5”. In the case of `CNC[C@H](O)c1cccc(O)c1` [Phenylephrine HCl, 3-(1R)-1-hydroxy-2-(methylamino)ethyl]phenol; hydrochloride], the pKa value entry is “about 9.07”.
